Reference: PubChem BioAssay AID1259334 (Broad Institute, 2017)
Activity calls are given as the source filed them. No stated cut-off is given here; in the data, active means AC50 below about 11 µM.

Test system: B cell line, TNFa signaling counterscreen reporter
Experiment: TNFa signaling inhibitors in B cell line, dose response, counter-screen (AID 1259334);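 further: cells stimulated with TNFa after compound preincubation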

Row | Structure (SMILES) | AC50
1 | O=C1NC2C(=CC(O)C(O)C2O)c2cc3c(c(O)c21)OCO3 (centres undefined) | 0.0423 µM
2 | c1ccc2nc(-c3nc4ccccc4o3)ccc2c1 | 6.02 µM
3 | CC(C)c1c(O)ccc2c1CCC1C(C)(C)CCC[C@]21C (some centres undefined) | 5.43 µM
4 | CC(C)(C)[C@H](N)C(=O)N[C@H]1CCC2C3CC=C4C[C@@H](O)CC[C@]4(C)C3CC[C@@]21C (some centres undefined) | 4.1 µM
5 | CC=Cc1cc2c(c(=O)o1)C(=O)C(O)C(C)O2 (centres undefined) | 10.4 µM
6 | COc1ccc2c3c([nH]c2c1)[C@H](CO)N(C(=O)Nc1ccc(F)cc1)CC31CN(Cc2cc(F)ccc2F)C1 | > 20 µM (inactive)
7 | Cc1ccc(N2CC(C(=O)Nc3nccs3)CC2=O)cc1Cl (centres undefined) | 8.13 µM
8 | O=C(COC(=O)c1ccccc1)c1ccc2c(c1)OCCO2 | 0.986 µM
9 | Oc1cc2c(cc1C(c1ccc(Br)cc1)N1CCCC1)OCO2 (centres undefined) | 6.97 µM
10 | C[C@H](CO)N1C[C@H](C)[C@H](CN(C)C(=O)Nc2cccc(Cl)c2Cl)OCc2ccccc2-c2c(n(C)c3ccccc23)C1=O | 2.81 µM
11 | CC(C)(C)CC(C)(C)c1ccc(OCCOCC[N+](C)(C)Cc2ccccc2)cc1 | 1.75 µM
12 | OC1(c2ccc(Cl)c(C(F)(F)F)c2)CCN(CCCC(c2ccc(F)cc2)c2ccc(F)cc2)CC1 | 8.99 µM
13 | CC(C)(C)[S@](=O)N1Cc2cc(C(=O)NCC(F)(F)F)nc(-c3cccc(-c4cccc(F)c4)c3)c2[C@@H]1CCO | > 20 µM (inactive)
14 | C[C@@H]1CN([C@@H](C)CO)C(=O)c2c(c3ccccc3n2C)-c2ccccc2CO[C@@H]1CN(C)Cc1ccccc1C(F)(F)F | > 20 µM (inactive)
15 | CC1CNCCN1S(=O)(=O)c1cccc2cnccc12 (centres undefined) | 7.79 µM
16 | NC(c1csc(NC(=O)Nc2cccc(Cl)c2)n1)c1ccccc1Cl (centres undefined) | 7.41 µM
17 | C[C@@H]1CN([C@@H](C)CO)C(=O)c2c(c3ccccc3n2C)-c2ccccc2CO[C@H]1CN(C)C(=O)Nc1cccc(C(F)(F)F)c1 | 10.9 µM
18 | CCN1C(=O)C(CC(=O)Nc2ccc(F)cc2)N(Cc2ccco2)C1=S (centres undefined) | > 20 µM (inactive)
19 | CC1=C(SCCO)C(=O)c2ccccc2C1=O | 2.22 µM
20 | O=C1CC(=O)OC(c2ccc([N+](=O)[O-])cc2)O1 | 1.09 µM
21 | Cc1ccc(CN2CC(C(=O)Nc3ncc(C)s3)CC2=O)cc1 (centres undefined) | 4.2 µM
22 | O=C(Cn1ncc(Cl)c(Cl)c1=O)NC1CCCCC1 | 2.42 µM

Row | Structure (SMILES) | AC50
23 | COc1cccc(/C=N/Nc2ccc(C(=O)O)cc2)c1O | 2.02 µM
24 | O=C(Cc1ccccc1)N1CC[C@@H]2[C@H]1c1cc(-c3cccc(F)c3)ccc1N[C@@H]2CO | 10.7 µM
25 | N#C[C@H]1[C@H](c2ccc(C#Cc3ccccc3F)cc2)[C@@H](CO)N1C(=O)C1CCC1 | > 20 µM (inactive)
26 | Cc1noc(C)c1S(=O)(=O)Nc1ccc2c(c1)C(=O)N([C@H](C)CO)C[C@@H](C)[C@H](CN(C)C(=O)Nc1cccc3ccccc13)OCCCC[C@@H](C)O2 | > 20 µM (inactive)
27 | c1ccc(-c2ccc(-c3ccccn3)nn2)nc1 | 6.99 µM
28 | COc1ccc2c3c(n(C)c2c1)[C@@H](CO)N(C(=O)Nc1ccc(F)cc1)CC31CN(Cc2ccccc2F)C1 | > 20 µM (inactive)
29 | C[C@@H]1CN([C@@H](C)CO)C(=O)c2c(c3ccccc3n2C)-c2ccccc2CO[C@H]1CN(C)Cc1ccccc1 | 5.53 µM
30 | O=C(C1CCOCC1)N1CC(=O)N2[C@H](C1)[C@H](c1ccc(C#CCc3ccccc3)cc1)[C@@H]2CO | 1.6 µM
31 | COc1cc(C(=O)CCN2CCC(c3ccccc3)C2)cc(OC)c1OC (centres undefined) | 4.66 µM
32 | O=C1NC2c3c(I)sc(I)c3C(=O)C2O1 (centres undefined) | 3.87 µM
33 | C=C1C(=O)O[C@H]2[C@H]1CC/C(C)=C/CC[C@@]1(C)O[C@@H]21 | 3.54 µM
34 | Cn1cnc(CCNC(=O)C[C@@H]2CC[C@@H]3[C@H](COC[C@@H](O)CN3C(=O)Nc3ccc(C(F)(F)F)cc3)O2)c1 | 9.53 µM
35 | CC(=O)OC1C(=O)OCC23CCC4(C)OC4C2OC2CC(OC(=O)C=CC=CC(=O)OCCC1C)C3(C)C21CO1 (centres undefined) | 0.00412 µM
36 | C[C@@H]1CN([C@@H](C)CO)C(=O)c2c(c3ccccc3n2C)-c2ccccc2CO[C@H]1CN(C)Cc1cccc(C(F)(F)F)c1 | 6.02 µM
37 | N#C[C@@H]1[C@H](c2ccc(C#Cc3ccccc3F)cc2)[C@@H](CO)N1C(=O)c1cccnc1 | 6.76 µM
38 | Cc1ccc(S(=O)(=O)N[C@@H](Cc2ccccc2)C(=O)CCl)cc1 | 1.2 µM
39 | N#Cc1cccc(-c2ccc(C3[C@H]4CNC[C@@H]3N4Cc3ccc4c(c3)OCO4)cc2)c1 (some centres undefined) | 6.32 µM
40 | COc1ccc(C#Cc2ccc([C@H]3[C@H]4CN(C(=O)c5ccncc5)CCCCN4[C@H]3CO)cc2)cc1 | 8.29 µM
41 | C[C@H]1O[C@@H](O[C@H]2[C@@H](O)C[C@H](O[C@H]3[C@@H](O)C[C@H](O[C@H]4CC[C@]5(C)C6C[C@@H](O)[C@]7(C)[C@@H](C8=CC(=O)OC8)CC[C@]7(O)C6CC[C@@H]5C4)O[C@@H]3C)O[C@@H]2C)C[C@H](O)[C@@H]1O (some centres undefined) | 0.697 µM
42 | COc1ccc(C(=O)/C=C/C(=O)N(CC(=O)NC2CCCCC2)Cc2ccc(F)cc2)c(O)c1 | 5.1 µM
43 | Cc1cc(C)cc(N2C(=O)CC(Sc3nnnn3-c3ccccc3)C2=O)c1 (centres undefined) | 0.728 µM
44 | C[C@@H]1CN([C@H](C)CO)C(=O)c2ccccc2-c2ccccc2CO[C@@H]1CN(C)Cc1ccccc1C(F)(F)F | 10.7 µM
